The source of these data is patent US10676462B2, “Quinoline derivative” (ONO PHARMACEUTICAL CO., LTD., priority 2013, dated 2020).

In this experiment the target is T1, Human CYP2C8 (Homo sapiens, UniProt P10632).
T1 construct: E. coli-expressed liver microsome CYP2C8 (Cypex, 30 μmol/L); purchased Cypex; host or cells: E. coli
T1 sequence (P10632 1-490): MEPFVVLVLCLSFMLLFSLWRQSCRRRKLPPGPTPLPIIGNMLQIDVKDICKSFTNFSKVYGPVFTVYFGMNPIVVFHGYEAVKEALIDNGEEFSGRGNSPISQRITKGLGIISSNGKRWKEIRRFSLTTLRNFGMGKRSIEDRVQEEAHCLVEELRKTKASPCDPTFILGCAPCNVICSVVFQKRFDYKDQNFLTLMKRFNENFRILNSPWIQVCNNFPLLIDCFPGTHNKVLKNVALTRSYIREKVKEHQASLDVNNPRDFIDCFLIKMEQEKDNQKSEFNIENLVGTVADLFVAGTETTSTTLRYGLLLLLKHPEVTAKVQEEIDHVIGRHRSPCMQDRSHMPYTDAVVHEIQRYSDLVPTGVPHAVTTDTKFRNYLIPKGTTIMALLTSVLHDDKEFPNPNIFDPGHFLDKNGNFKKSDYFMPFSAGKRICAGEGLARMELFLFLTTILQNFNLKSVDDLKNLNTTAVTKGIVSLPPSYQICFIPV
In words: Inhibitory activity of drug-metabolizing enzyme (human CYP2C8 inhibition effect). The experiment is classed as in vitro ADME. Conditions: E. coli-expressed CYP2C8, substrate Luciferin-ME, from inhibition rates at 1 and 10 μmol/L. The protocol: Biological Example 4: Measurement of Inhibitory Activity of Drug-Metabolizing Enzyme (Human CYP2C8 Inhibition Effect)
The reaction was carried out in a 384-well plate. As the positive control substance (CYP2C8: quercetin), a solution, which had been adjusted with DMSO to have 300 times higher concentration than the final concentration (CYP2C8: 22.5 and 225 μmol/L) and been 75-fold diluted with purified water containing 2.7% acetonitrile, was prepared (CYP2C8: 0.3 and 3 μmol/L). The test compounds were prepared to have a concentration of […] with DMSO, and then 75-fold diluted with purified water containing 2.7% acetonitrile to be 4 and 40 μmol/L. Then, a reaction mixture solution was prepared by addition of a potassium phosphate buffer (pH 7.4), magnesium chloride ([…]), substrate (CYP2C8: Luciferin-ME, 150 μmol/L), and E. coli-expressed liver microsome CYP2C8 (Cypex, 30 μmol/L) (the numerical values are final concentrations). The reaction was started by addition of 8 μL of this reaction mixture, 4 μL each of the test compound and the positive control solution which had been prepared as described above, and 4 μL of NADPH production system solution (5.2 mM NADP, 13.2 mM glucose-6-phosphate, 1.6 U/mL glucose-6-phosphate dehydrogenase) and incubation was carried out at 37° C. for 30 min. Thereafter, 16 μL of luciferase solution was added to stop the reaction and to allow luciferin to emit light, and the luminescence intensity of the reaction solution was measured. The inhibition rate is a reduction rate (inhibition rate) of the luminescence intensity when compared with the control in which the reaction was carried out by the addition of DMSO in place of the test compound solution. The inhibition rate was calculated from the following mathematical formula. Inhibition rate (%)=100−{(luminescence intensity of test compound−background luminescence intensity)/(luminescence intensity of control−background luminescence intensity)×100} [Math. 3]
The IC50 value was defined to be <1 μM when the inhibition rate at 1 μmol/L was not less than 50%; and >10 μM when the inhibition rate at 10 μmol/L was not more than 50%. The range between the above-mentioned range (not more than 50% at 1 μmol/L and not less than 50% at 10 μmol/L) was calculated using the following mathematical formula: IC50=(50−b)/a [Math.4] wherein a and b are the slope and intercept of the linear regression line: y=ax+b that passes through the two points: the concentration and the inhibition rate at 1 μmol/L and the concentration and the inhibition rate at 10 μmol/L.
The IC50 values of the comparative compounds and compounds of the present invention were measured using the measurement method described above.
Broadly, the IC50 is the concentration that inhibits the measured activity by half. Take `COc1cc2nccc(Oc3ccc(NC(=O)c4cc5c(n(-c6ccccc6)c4=O)CC(C)(C)CC5=O)nc3)c2cc1OC` [Example 5(1), N-{5-[(6,7-dimethoxy-4-quinolinyl)oxy]-2-pyridinyl}-7,7-dimethyl-2,5-dioxo-1-phenyl-1,2,5,6,7,8-hexahydro-3-quinolinecarboxamide]: the IC50 was more than 10 µM. `O=C1CCCc2c1cc(C(=O)Nc1ccc(Oc3ccnc4cc(OCCCN5CCOCC5)ccc34)cn1)c(=O)n2-c1ccccc1` [Example 17(2), N-[5-({7-[3-(4-morpholinyl)propoxy]-4-quinolinyl}oxy)-2-pyridinyl]2,5-dioxo-1-phenyl-1,2,5,6,7,8-hexahydro-3-quinolinecarboxamide] came in with a concentration for half-maximal inhibition (IC50) of more than 10 µM. The same measure for `COc1cc2nccc(Oc3ccc(NC(=O)c4cc5c(n(-c6ccccc6)c4=O)CCCC5=O)c(C)c3)c2cc1OC` [Example 23(2), N-{4-[(6,7-dimethoxy-4-quinolinyl)oxy]-2-methylphenyl}-2,5-dioxo-1-phenyl-1,2,5,6,7,8-hexahydro-3-quinolinecarboxamide]: more than 10 µM. `COc1cc2nccc(Oc3ccc(NC(=O)c4cc5c(n(-c6ccccc6)c4=O)CCCC5=O)nc3)c2cc1OC` [Example 5, N-{5-[(6,7-dimethoxy-4-quinolinyl)oxy]-2-pyridinyl}-2,5-dioxo-1-phenyl-1,2,5,6,7,8-hexahydro-3-quinolinecarboxamide] yielded a 50% inhibitory concentration (IC50) of more than 10 µM.
